Reference: patent EP4778922A1, “BICYCLIC COMPOUND, AND PREPARATION METHOD THEREFOR AND PHARMACEUTICAL USE THEREOF” (Shanghai Jeyou Pharmaceutical Co., Ltd., priority 2023, dated 2025)
Where two headings read alike, the source gives them in different places.

Experiments:
[1] = tested on: 22RV1 cells; assay: Cell proliferation inhibition assay in 22RV1 cells (CellTiter-Glo, 7 days); type: cell-based, human; conditions: Homo sapiens, 22Rv1, 168 h
Method in brief: (§1)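 22RV1 cells received compound alone; LNCaP cells were stimulated with 0.2 nM DHT added 1 h after compound. Seeding was 3000 cells/well.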

[2] = tested on: LNCaP cells; assay: Cell proliferation inhibition assay in LNCaP cells (0.2 nM DHT, CellTiter-Glo, 7 days); type: cell-based, human; conditions: Homo sapiens, LNCaP, 168 h
Method in brief: as §1

[3] = Mouse pharmacokinetic test; type: in vivo, ICR mice; conditions: plasma; for bioavailability: PO-30mpk vs IV-0.5mpk; for Tmax: read-out: Tmax
Method in brief: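 Male naive ICR mice (25–30 g, n=3 per route) received a single intravenous or oral dose, with feeding resumed 4 h post-dose. Blood was centrifuged at 4°C, and plasma was stored at -80°C until analysis.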

[4] = target: T1, CYP2C19 (Homo sapiens, UniProt P33261); assay: CYP inhibition assay in human liver microsomes; type: in vitro ADME; conditions: human liver microsomes, NADPH; read-out: CYPs 2C19 (IC50)
T1 construct: co-incubated with human liver microsomes; from tissue; host or cells: human liver microsomes
Procedure: (§2) Test Example 3: CYP Inhibition Assay
(§3) An in vitro assay system was used to evaluate the effects of the compounds on the activities of several human liver microsomal cytochrome P450 (CYP) isozymes (CYP1A2, CYP2C9, CYP2D6, CYP3A4 (testosterone/midazolam), CYP2C19, and CYP2C8). Specific probe substrates for CYP450 isozymes were co-incubated with human liver microsomes and the compound at various concentrations (0, 0.0300, 0.100, 0.300, 1.00, 3.00, 10.0 µM). The reaction was initiated by adding the coenzyme NADPH. After the reaction was completed, the samples were processed, and the metabolites generated from the probe substrates were detected by liquid chromatography-tandem mass spectrometry (LC-MS/MS). Based on the resulting dose-response curves, the IC50 values of the test compounds for the probe substrate reactions catalyzed by each CYP isozyme were calculated.

[5] = target: T2, CYP2C8 (Homo sapiens, UniProt P10632); assay: CYP inhibition assay in human liver microsomes; type: in vitro ADME; conditions: human liver microsomes, NADPH; read-out: CYPs 2C8 (IC50)
T2 construct: co-incubated with human liver microsomes; from tissue; host or cells: human liver microsomes
T2 sequence (P10632 1-490): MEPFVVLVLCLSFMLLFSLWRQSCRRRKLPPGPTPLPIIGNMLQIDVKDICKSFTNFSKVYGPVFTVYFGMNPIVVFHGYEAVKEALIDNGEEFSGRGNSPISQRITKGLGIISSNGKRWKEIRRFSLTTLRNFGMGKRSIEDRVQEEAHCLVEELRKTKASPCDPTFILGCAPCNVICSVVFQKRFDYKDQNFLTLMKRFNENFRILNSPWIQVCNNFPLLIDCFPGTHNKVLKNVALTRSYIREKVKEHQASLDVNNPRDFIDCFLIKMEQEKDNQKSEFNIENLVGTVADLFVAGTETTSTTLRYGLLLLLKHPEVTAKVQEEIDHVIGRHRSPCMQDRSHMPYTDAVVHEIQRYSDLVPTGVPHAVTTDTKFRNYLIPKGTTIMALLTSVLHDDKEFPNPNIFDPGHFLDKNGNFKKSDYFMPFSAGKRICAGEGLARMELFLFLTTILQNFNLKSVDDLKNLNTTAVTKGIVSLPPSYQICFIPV
Procedure: as §2, §3

[6] = target: T3, CYP2C9 (Homo sapiens, UniProt P11712); assay: CYP inhibition assay in human liver microsomes; type: in vitro ADME; conditions: human liver microsomes, NADPH; read-out: CYPs 2C9 (IC50)
T3 construct: co-incubated with human liver microsomes; from tissue; host or cells: human liver microsomes
Procedure: as §2, §3

[7] = target: T4, CYP3A4 (testosterone/midazolam) (Homo sapiens, UniProt P08684); assay: CYP inhibition assay in human liver microsomes; type: in vitro ADME
T4 construct: co-incubated with human liver microsomes; from tissue; host or cells: human liver microsomes
Procedure: as §2, §3

[8] = probe substrate midazolam, read-out: CYPs 3A4 (Midazolam) (IC50)
[9] = probe substrate testosterone, read-out: CYPs 3A4 (Testosterone) (IC50)

T1 sequence (P33261 whole entry): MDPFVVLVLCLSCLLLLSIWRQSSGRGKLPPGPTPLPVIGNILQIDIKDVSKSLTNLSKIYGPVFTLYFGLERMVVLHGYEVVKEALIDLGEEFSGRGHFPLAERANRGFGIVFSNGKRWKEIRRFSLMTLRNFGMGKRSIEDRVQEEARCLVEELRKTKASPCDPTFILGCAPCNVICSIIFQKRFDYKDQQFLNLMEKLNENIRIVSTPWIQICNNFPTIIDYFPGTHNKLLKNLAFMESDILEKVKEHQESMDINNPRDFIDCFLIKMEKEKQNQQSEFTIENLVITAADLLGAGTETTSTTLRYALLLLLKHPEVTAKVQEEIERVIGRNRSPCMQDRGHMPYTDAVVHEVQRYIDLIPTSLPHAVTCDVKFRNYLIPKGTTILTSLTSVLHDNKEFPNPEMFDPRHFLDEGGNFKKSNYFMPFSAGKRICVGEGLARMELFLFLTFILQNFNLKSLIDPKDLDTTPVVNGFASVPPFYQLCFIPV
T3 sequence (P11712 whole entry): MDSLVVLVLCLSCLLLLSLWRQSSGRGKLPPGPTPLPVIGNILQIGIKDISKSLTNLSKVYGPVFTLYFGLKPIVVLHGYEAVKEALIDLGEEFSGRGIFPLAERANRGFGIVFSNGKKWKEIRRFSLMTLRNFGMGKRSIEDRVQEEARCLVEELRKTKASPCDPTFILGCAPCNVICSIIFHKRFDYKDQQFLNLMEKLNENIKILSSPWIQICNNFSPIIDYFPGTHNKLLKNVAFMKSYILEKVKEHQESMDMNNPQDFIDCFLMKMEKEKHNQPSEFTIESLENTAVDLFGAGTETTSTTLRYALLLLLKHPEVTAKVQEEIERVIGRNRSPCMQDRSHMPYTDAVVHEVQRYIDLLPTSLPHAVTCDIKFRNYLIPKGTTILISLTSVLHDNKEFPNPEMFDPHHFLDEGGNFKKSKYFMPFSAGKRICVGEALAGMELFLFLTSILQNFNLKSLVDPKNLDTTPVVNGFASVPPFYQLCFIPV
T4 sequence (P08684 whole entry): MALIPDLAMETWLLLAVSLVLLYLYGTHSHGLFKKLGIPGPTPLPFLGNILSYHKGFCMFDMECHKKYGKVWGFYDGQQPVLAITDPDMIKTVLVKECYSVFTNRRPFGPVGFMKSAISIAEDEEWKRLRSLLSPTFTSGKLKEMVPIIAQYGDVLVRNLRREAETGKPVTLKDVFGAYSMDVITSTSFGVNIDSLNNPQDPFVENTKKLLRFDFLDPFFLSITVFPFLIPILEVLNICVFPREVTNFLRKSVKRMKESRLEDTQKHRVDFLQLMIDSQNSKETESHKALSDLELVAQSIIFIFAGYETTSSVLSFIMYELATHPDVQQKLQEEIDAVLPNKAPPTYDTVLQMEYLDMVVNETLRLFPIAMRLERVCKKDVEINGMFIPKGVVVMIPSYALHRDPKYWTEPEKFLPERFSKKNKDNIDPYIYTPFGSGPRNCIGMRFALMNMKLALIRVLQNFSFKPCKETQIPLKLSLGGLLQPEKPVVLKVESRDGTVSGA

CC(C)(c1ccc(-c2ccc(OCc3ccnc(N4CC(S(C)(=O)=O)C4)n3)cn2)cc1)c1cc(Cl)c(OCCCl)c(C#N)c1 [Compound 85]
IC50 [1]: 0.34 µM | IC50 [2]: 0.33 µM | C0 ([3]; 0.5 mg/kg, IV-0.5mpk): 3110 ng/mL | clearance ([3]; 0.5 mg/kg, IV-0.5mpk): 0.63 mL/min/kg | bioavailability ([3]; 30 mg/kg): 58.3% | AUC(0-inf) ([3]; iv, 0.5 mg/kg, IV-0.5mpk): 13.7 µg·h/mL | half-life ([3]; iv, 0.5 mg/kg, IV-0.5mpk): 6.12 h | AUC(0-inf) ([3]; po, 30 mg/kg, PO-30mpk): 480 µg·h/mL | Cmax ([3]; po, 30 mg/kg, PO-30mpk): 43000 ng/mL | half-life ([3]; po, 30 mg/kg, PO-30mpk): 8.9 h | Tmax ([3]; po, 30 mg/kg, PO-30mpk): 2 h | IC50 [4]: > 10 µM | IC50 [5]: > 10 µM | IC50 [6]: 6.5 µM | IC50 [7, 8]: > 10 µM | IC50 [7, 9]: > 10 µM

CC(C)(c1ccc(-c2ccc(C#Cc3cnc(P(C)(C)=O)nc3)cc2)cc1)c1cc(Cl)c(OCCCl)c(C#N)c1 [Compound 109]
IC50 [1]: 0.12 µM | IC50 [2]: 0.57 µM | C0 ([3]; 0.5 mg/kg, IV-0.5mpk): 1580 ng/mL | clearance ([3]; 0.5 mg/kg, IV-0.5mpk): 0.56 mL/min/kg | bioavailability ([3]; 30 mg/kg): 93.6% | AUC(0-inf) ([3]; iv, 0.5 mg/kg, IV-0.5mpk): 15.5 µg·h/mL | half-life ([3]; iv, 0.5 mg/kg, IV-0.5mpk): 13.8 h | AUC(0-inf) ([3]; po, 30 mg/kg, PO-30mpk): 870 µg·h/mL | Cmax ([3]; po, 30 mg/kg, PO-30mpk): 29200 ng/mL | half-life ([3]; po, 30 mg/kg, PO-30mpk): 27.1 h | Tmax ([3]; po, 30 mg/kg, PO-30mpk): 4 h | IC50 [4]: > 10 µM | IC50 [5]: 8.8 µM | IC50 [6]: > 10 µM | IC50 [7, 8]: > 10 µM | IC50 [7, 9]: > 10 µM

CC(C)(c1ccc(-c2ccc(OCc3ccc(-c4cnc(P(C)(C)=O)nc4)cc3)cc2)cc1)c1cc(Cl)c(OCCCl)c(C#N)c1 [Compound 136]
IC50 [1]: 0.23 µM | IC50 [2]: 0.52 µM | C0 ([3]; 0.5 mg/kg, IV-0.5mpk): 3730 ng/mL | clearance ([3]; 0.5 mg/kg, IV-0.5mpk): 0.49 mL/min/kg | bioavailability ([3]; 30 mg/kg): 23.5% | AUC(0-inf) ([3]; iv, 0.5 mg/kg, IV-0.5mpk): 17.1 µg·h/mL | half-life ([3]; iv, 0.5 mg/kg, IV-0.5mpk): 14.6 h | AUC(0-inf) ([3]; po, 30 mg/kg, PO-30mpk): 242 µg·h/mL | Cmax ([3]; po, 30 mg/kg, PO-30mpk): 10100 ng/mL | half-life ([3]; po, 30 mg/kg, PO-30mpk): 16.6 h | Tmax ([3]; po, 30 mg/kg, PO-30mpk): 7 h | IC50 [4]: > 10 µM | IC50 [5]: > 10 µM | IC50 [6]: > 10 µM | IC50 [7, 8]: > 10 µM | IC50 [7, 9]: > 10 µM

CC(C)(c1ccc(-c2ccc(OCc3ccc(-c4cnc(P(C)(C)=O)nc4)nc3)cc2)cc1)c1cc(Cl)c(OCCCl)c(C#N)c1 [Compound 276]
IC50 [1]: 0.11 µM | IC50 [2]: 0.51 µM | AUC(0-inf) ([3]; po, 30 mg/kg, PO-30mpk): 216 µg·h/mL | Cmax ([3]; po, 30 mg/kg, PO-30mpk): 13200 ng/mL | half-life ([3]; po, 30 mg/kg, PO-30mpk): 9 h | Tmax ([3]; po, 30 mg/kg, PO-30mpk): 4 h | IC50 [4]: > 10 µM | IC50 [5]: > 10 µM | IC50 [6]: > 10 µM | IC50 [7, 8]: > 10 µM | IC50 [7, 9]: > 10 µM

CC(C)(c1ccc(-c2ccc(OCC34CC(c5cnc(P(C)(C)=O)nc5)(C3)C4)cc2)cc1)c1cc(Cl)c(OCCCl)c(C#N)c1 [Compound 320]
IC50 [1]: 0.079 µM | IC50 [2]: 0.26 µM | IC50 [4]: > 10 µM | IC50 [5]: 9.1 µM | IC50 [6]: > 10 µM | IC50 [7, 8]: > 10 µM | IC50 [7, 9]: > 10 µM

CC(C)(c1ccc(-c2ncc(OCc3ccnc(N4CC(S(C)(=O)=O)C4)n3)cn2)cc1)c1cc(Cl)c(OCCCl)c(C#N)c1 [Compound 379]
IC50 [1]: 0.68 µM | IC50 [2]: 0.12 µM | IC50 [4]: > 10 µM | IC50 [5]: > 10 µM | IC50 [6]: > 10 µM | IC50 [7, 8]: > 10 µM | IC50 [7, 9]: > 10 µM

CC(C)(c1ccc(-c2cnc(OCc3ccc(-c4ccc(P(C)(C)=O)nn4)cc3)cn2)cc1)c1cc(Cl)c(OCCCl)c(C#N)c1 [Compound 380]
IC50 [1]: 0.23 µM | IC50 [2]: 0.15 µM | IC50 [4]: > 10 µM | IC50 [5]: > 10 µM | IC50 [6]: > 10 µM | IC50 [7, 8]: > 10 µM | IC50 [7, 9]: > 10 µM

CC(C)(c1ccc(-c2cnc(OCc3ccc(-c4cnc(P(C)(C)=O)cn4)cc3)cn2)cc1)c1cc(Cl)c(OCCCl)c(C#N)c1 [Compound 381]
IC50 [1]: 0.35 µM | IC50 [2]: 0.11 µM | IC50 [4]: > 10 µM | IC50 [5]: > 10 µM | IC50 [6]: 5.8 µM | IC50 [7, 8]: > 10 µM | IC50 [7, 9]: > 10 µM

CC(C)(c1ccc(-c2cnc(OCc3ccnc(N4CC(S(=O)(=O)C5CC5)C4)n3)cn2)cc1)c1cc(Cl)c(OCCCl)c(C#N)c1 [Compound 387]
IC50 [1]: 0.22 µM | IC50 [2]: 0.05 µM | IC50 [4]: > 10 µM | IC50 [5]: > 10 µM | IC50 [6]: 1.9 µM | IC50 [7, 8]: > 10 µM | IC50 [7, 9]: > 10 µM

CC(C)(c1ccc(-c2cnc(OCc3ccnc(N4CC5(C4)CS(=N)(=O)C5)n3)cn2)cc1)c1cc(Cl)c(OCCCl)c(C#N)c1 [Compound 391]
IC50 [1]: 0.46 µM | IC50 [2]: 0.091 µM | IC50 [4]: > 10 µM | IC50 [5]: > 10 µM | IC50 [6]: 10 µM | IC50 [7, 8]: > 10 µM | IC50 [7, 9]: > 10 µM
